From ChEMBL document CHEMBL1201862, “PubChem BioAssay data set” (2004)
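Assay format: 96-well plates, 48-hour exposure. Here, GI50 denotes the concentration required for 50% inhibition of growth.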 Calls of active or inactive are those of the source. Rule as the data show it: active = GI50 up to about 1.1 µM and inactive = higher.

Columns and labels:
Experiment in all cases: inhibition of tumour cell growth, NCI panel, 48 h
ACHN = test system: ACHN
HCT-15 = test system: HCT-15
HL-60 = test system: HL-60
A549 = test system: A549
SN12C = test system: SN12C
SK-MEL-28 = test system: SK-MEL-28
U-251 = test system: U-251
OVCAR-3 = test system: OVCAR-3
HCT-116 = test system: HCT-116
RXF 393 = test system: RXF 393
IGROV-1 = test system: IGROV-1
MDA-MB-435 = test system: MDA-MB-435
Malme-3M = test system: Malme-3M
786-0 = test system: 786-0
RPMI-8226 = test system: RPMI-8226
MDA-N = test system: MDA-N
HCC 2998 = test system: HCC 2998
SW-620 = test system: SW-620
SK-MEL-2 = test system: SK-MEL-2
EKVX = test system: EKVX
A498 = test system: A498
OVCAR-4 = test system: OVCAR-4
NCI/ADR-RES = test system: NCI/ADR-RES
NCI-H23 = test system: NCI-H23
SF-539 = test system: SF-539
SNB-19 = test system: SNB-19
TK-10 = test system: TK-10
OVCAR-5 = test system: OVCAR-5
UACC-257 = test system: UACC-257
NCI-H460 = test system: NCI-H460
UACC-62 = test system: UACC-62
OVCAR-8 = test system: OVCAR-8
PC-3 = test system: PC-3
NCI-H226 = test system: NCI-H226
COLO 205 = test system: COLO 205
SF-295 = test system: SF-295
CCRF-CEM = test system: CCRF-CEM
BT-549 = test system: BT-549
K562 = test system: K562
HT-29 = test system: HT-29
UO-31 = test system: UO-31
NCI-H522 = test system: NCI-H522
SK-OV-3 = test system: SK-OV-3
HOP-62 = test system: HOP-62
SK-MEL-5 = test system: SK-MEL-5
CAKI-1 = test system: CAKI-1
MOLT-4 = test system: MOLT-4
M14 = test system: M14
T47D = test system: T47D
DU-145 = test system: DU-145
LOX IMVI = test system: LOX IMVI
KM12 = test system: KM12
MCF7 = test system: MCF7
HOP-92 = test system: HOP-92
Hs-578T = test system: Hs-578T
SF-268 = test system: SF-268
SR = test system: SR
MDA-MB-231 = test system: MDA-MB-231

CC(=O)N[C@@H](Cc1ccc(O)cn1)C(=O)NCc1ccc(Cl)cc1
GI50 (ACHN): > 100 µM (inactive) | GI50 (HCT-15): > 100 µM | GI50 (HL-60): > 100 µM (inactive) | GI50 (A549): > 100 µM (inactive) | GI50 (SN12C): > 100 µM (inactive) | GI50 (SK-MEL-28): > 100 µM (inactive) | GI50 (U-251): > 100 µM (inactive) | GI50 (OVCAR-3): > 100 µM (inactive) | GI50 (HCT-116): > 100 µM (inactive) | GI50 (RXF 393): > 100 µM (inactive) | GI50 (IGROV-1): > 100 µM (inactive) | GI50 (MDA-MB-435): > 100 µM (inactive) | GI50 (Malme-3M): > 100 µM (inactive) | GI50 (786-0): > 100 µM (inactive) | GI50 (RPMI-8226): > 100 µM (inactive) | GI50 (MDA-N): > 100 µM (inactive) | GI50 (HCC 2998): > 100 µM (inactive) | GI50 (SW-620): > 100 µM (inactive) | GI50 (SK-MEL-2): > 100 µM (inactive) | GI50 (EKVX): > 100 µM (inactive) | GI50 (A498): > 100 µM (inactive) | GI50 (OVCAR-4): > 100 µM (inactive) | GI50 (NCI/ADR-RES): > 100 µM (inactive) | GI50 (NCI-H23): > 100 µM (inactive) | GI50 (SF-539): > 100 µM (inactive) | GI50 (SNB-19): > 100 µM (inactive) | GI50 (TK-10): > 100 µM (inactive) | GI50 (OVCAR-5): > 100 µM (inactive) | GI50 (UACC-257): 47.5 µM (inactive) | GI50 (NCI-H460): > 100 µM (inactive) | GI50 (UACC-62): > 100 µM (inactive) | GI50 (OVCAR-8): > 100 µM (inactive) | GI50 (PC-3): > 100 µM (inactive) | GI50 (NCI-H226): > 100 µM (inactive) | GI50 (COLO 205): > 100 µM (inactive) | GI50 (SF-295): > 100 µM (inactive) | GI50 (CCRF-CEM): 31.5 µM (inactive) | GI50 (BT-549): > 100 µM (inactive) | GI50 (K562): > 100 µM (inactive) | GI50 (HT-29): > 100 µM (inactive) | GI50 (UO-31): > 100 µM (inactive) | GI50 (NCI-H522): > 100 µM (inactive) | GI50 (SK-OV-3): > 100 µM (inactive) | GI50 (HOP-62): > 100 µM (inactive) | GI50 (SK-MEL-5): > 100 µM (inactive) | GI50 (CAKI-1): > 100 µM (inactive) | GI50 (MOLT-4): > 100 µM (inactive) | GI50 (M14): > 100 µM (inactive) | GI50 (T47D): 94 µM (inactive) | GI50 (DU-145): > 100 µM (inactive) | GI50 (LOX IMVI): > 100 µM (inactive) | GI50 (KM12): > 100 µM (inactive) | GI50 (MCF7): > 100 µM (inactive) | GI50 (HOP-92): 94.4 µM (inactive)

O=[N+]([O-])/C(C(Cl)=C(Cl)Cl)=C(\SCc1ccccc1)N1CCCCC1
GI50 (ACHN): 17.4 µM (inactive) | GI50 (HCT-15): 19.7 µM | GI50 (HL-60): 9.73 µM (inactive) | GI50 (A549): 30.9 µM (inactive) | GI50 (Hs-578T): 27.5 µM (inactive) | GI50 (SN12C): 20.2 µM (inactive) | GI50 (SK-MEL-28): 37.2 µM (inactive) | GI50 (U-251): 43.8 µM (inactive) | GI50 (OVCAR-3): 14.1 µM (inactive) | GI50 (HCT-116): 16.3 µM (inactive) | GI50 (RXF 393): 19.7 µM (inactive) | GI50 (IGROV-1): 24.6 µM (inactive) | GI50 (MDA-MB-435): 16.3 µM (inactive) | GI50 (Malme-3M): 12.2 µM (inactive) | GI50 (786-0): 15.9 µM (inactive) | GI50 (RPMI-8226): 11.5 µM (inactive) | GI50 (MDA-N): 17.5 µM (inactive) | GI50 (HCC 2998): 23.4 µM (inactive) | GI50 (SF-268): 23.7 µM (inactive) | GI50 (SK-MEL-2): 21.5 µM (inactive) | GI50 (EKVX): 70.3 µM (inactive) | GI50 (A498): 31.9 µM (inactive) | GI50 (OVCAR-4): 15 µM (inactive) | GI50 (SR): 8.34 µM (inactive) | GI50 (NCI-H23): 18 µM (inactive) | GI50 (SF-539): 21.5 µM (inactive) | GI50 (SNB-19): 56.2 µM (inactive) | GI50 (TK-10): 38.4 µM (inactive) | GI50 (OVCAR-5): 20.4 µM (inactive) | GI50 (UACC-257): 28.4 µM (inactive) | GI50 (MDA-MB-231): 13.3 µM (inactive) | GI50 (NCI-H460): 23.8 µM (inactive) | GI50 (UACC-62): 17.9 µM (inactive) | GI50 (OVCAR-8): 20.6 µM (inactive) | GI50 (PC-3): 20 µM (inactive) | GI50 (NCI-H226): 19.7 µM (inactive) | GI50 (COLO 205): 16.4 µM (inactive) | GI50 (SF-295): 38.5 µM (inactive) | GI50 (CCRF-CEM): 8.34 µM (inactive) | GI50 (K562): 27.8 µM (inactive) | GI50 (HT-29): 36.6 µM (inactive) | GI50 (UO-31): 24.2 µM (inactive) | GI50 (NCI-H522): 14.7 µM (inactive) | GI50 (SK-OV-3): 40 µM (inactive) | GI50 (HOP-62): 38.4 µM (inactive) | GI50 (SK-MEL-5): 15.8 µM (inactive) | GI50 (CAKI-1): > 100 µM (inactive) | GI50 (MOLT-4): 10.7 µM (inactive) | GI50 (M14): 19.3 µM (inactive) | GI50 (T47D): 8.43 µM (inactive) | GI50 (DU-145): 41.3 µM (inactive) | GI50 (LOX IMVI): 15.9 µM (inactive) | GI50 (KM12): 28 µM (inactive) | GI50 (MCF7): 12.6 µM (inactive) | GI50 (HOP-92): 0.0879 µM (active)
